Source: PubChem BioAssay (NCI)
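Five compound concentrations were applied to cells in 96-well plates for 48 hours; endpoints were derived by simple linear interpolation of the resulting dose-response curve. The concentration for full growth arrest is given as TGI.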

What was measured:
Assay in all cases: inhibition of tumour cell growth, NCI panel, 48 h
PC-3 prostate = test system: PC-3 prostate
ACHN renal = test system: ACHN renal
DU-145 prostate = test system: DU-145 prostate
SNB-75 CNS = test system: SNB-75 CNS
UACC-257 melanoma = test system: UACC-257 melanoma
OVCAR-4 ovarian = test system: OVCAR-4 ovarian
SK-OV-3 ovarian = test system: SK-OV-3 ovarian
SK-MEL-5 melanoma = test system: SK-MEL-5 melanoma
SW-620 colon = test system: SW-620 colon
HOP-62 NSCLC = test system: HOP-62 NSCLC
HL-60(TB) leukemia = test system: HL-60(TB) leukemia
SF-539 CNS = test system: SF-539 CNS
HS 578T breast = test system: HS 578T breast
MDA-MB-435 = test system: MDA-MB-435
HCC-2998 colon = test system: HCC-2998 colon
UACC-62 melanoma = test system: UACC-62 melanoma
RXF 393 renal = test system: RXF 393 renal
OVCAR-3 ovarian = test system: OVCAR-3 ovarian
A549 NSCLC = test system: A549 NSCLC
EKVX NSCLC = test system: EKVX NSCLC
MALME-3M melanoma = test system: MALME-3M melanoma
U251 CNS = test system: U251 CNS
HCT-15 colon = test system: HCT-15 colon
NCI-H522 lung = test system: NCI-H522 lung
SF-295 CNS = test system: SF-295 CNS
NCI-H460 lung = test system: NCI-H460 lung
OVCAR-5 ovarian = test system: OVCAR-5 ovarian
LOX IMVI melanoma = test system: LOX IMVI melanoma
TK-10 renal = test system: TK-10 renal
SNB-19 CNS = test system: SNB-19 CNS
NCI-H226 lung = test system: NCI-H226 lung
NCI/ADR-RES ovarian = test system: NCI/ADR-RES ovarian
RPMI-8226 leukemia = test system: RPMI-8226 leukemia
IGROV1 ovarian = test system: IGROV1 ovarian
SF-268 CNS = test system: SF-268 CNS
MDA-N = test system: MDA-N
BT-549 breast = test system: BT-549 breast
UO-31 renal = test system: UO-31 renal
786-0 renal = test system: 786-0 renal
SK-MEL-2 melanoma = test system: SK-MEL-2 melanoma
K-562 leukemia = test system: K-562 leukemia
SN12C renal = test system: SN12C renal
HCT-116 colon = test system: HCT-116 colon
MOLT-4 leukemia = test system: MOLT-4 leukemia
MCF7 breast = test system: MCF7 breast
M14 melanoma = test system: M14 melanoma
HT29 colon = test system: HT29 colon
CCRF-CEM leukemia = test system: CCRF-CEM leukemia
KM12 colon = test system: KM12 colon
NCI-H23 lung = test system: NCI-H23 lung
SK-MEL-28 melanoma = test system: SK-MEL-28 melanoma
T-47D breast = test system: T-47D breast
MDA-MB-231 breast = test system: MDA-MB-231 breast
SR leukemia = test system: SR leukemia
OVCAR-8 ovarian = test system: OVCAR-8 ovarian
COLO 205 colon = test system: COLO 205 colon
CAKI-1 renal = test system: CAKI-1 renal
A498 renal = test system: A498 renal
HOP-92 NSCLC = test system: HOP-92 NSCLC

CC(C)CCc1c(Cl)nc(Cl)nc1Cl
TGI (PC-3 prostate): > 100 µM | TGI (ACHN renal): 92.3 µM | TGI (DU-145 prostate): 31.1 µM | TGI (SNB-75 CNS): 22.3 µM | TGI (UACC-257 melanoma): 34 µM | TGI (OVCAR-4 ovarian): 44.2 µM | TGI (SK-OV-3 ovarian): 37.6 µM | TGI (SK-MEL-5 melanoma): 16.4 µM | TGI (SW-620 colon): > 100 µM | TGI (HOP-62 NSCLC): 30.4 µM | TGI (HL-60(TB) leukemia): > 100 µM | TGI (SF-539 CNS): 56.5 µM | TGI (HS 578T breast): 56.8 µM | TGI (MDA-MB-435): 32.2 µM | TGI (HCC-2998 colon): 64 µM | TGI (UACC-62 melanoma): 24.7 µM | TGI (RXF 393 renal): 11.5 µM | TGI (OVCAR-3 ovarian): 24.3 µM | TGI (A549 NSCLC): 54.9 µM | TGI (EKVX NSCLC): 63.2 µM | TGI (MALME-3M melanoma): 50.7 µM | TGI (U251 CNS): 24.4 µM | TGI (HCT-15 colon): > 100 µM | TGI (NCI-H522 lung): 9.89 µM | TGI (SF-295 CNS): 34.4 µM | TGI (NCI-H460 lung): 39.7 µM | TGI (OVCAR-5 ovarian): 55 µM | TGI (LOX IMVI melanoma): 11.8 µM | TGI (TK-10 renal): 35.5 µM | TGI (SNB-19 CNS): 39 µM | TGI (NCI-H226 lung): 14.6 µM | TGI (NCI/ADR-RES ovarian): > 100 µM | TGI (RPMI-8226 leukemia): > 100 µM | TGI (IGROV1 ovarian): 37.5 µM | TGI (SF-268 CNS): > 100 µM | TGI (MDA-N): 21.4 µM | TGI (BT-549 breast): 12.3 µM | TGI (UO-31 renal): 35.3 µM | TGI (786-0 renal): 46.3 µM | TGI (SK-MEL-2 melanoma): > 100 µM | TGI (K-562 leukemia): > 100 µM | TGI (SN12C renal): 57.9 µM | TGI (HCT-116 colon): 9.3 µM | TGI (MOLT-4 leukemia): > 100 µM | TGI (MCF7 breast): 40.7 µM | TGI (M14 melanoma): 15.3 µM | TGI (HT29 colon): 28.9 µM | TGI (CCRF-CEM leukemia): > 100 µM

O=C1C(=O)c2ccccc2C(O)=C1CCCCCCCCC1CCCCC1
TGI (PC-3 prostate): 19.5 µM | TGI (ACHN renal): 15.6 µM | TGI (DU-145 prostate): 33.4 µM | TGI (SNB-75 CNS): 22.9 µM | TGI (UACC-257 melanoma): 72.8 µM | TGI (OVCAR-4 ovarian): > 100 µM | TGI (SK-OV-3 ovarian): 54.4 µM | TGI (KM12 colon): 23.1 µM | TGI (SK-MEL-5 melanoma): 23.7 µM | TGI (SW-620 colon): 17.7 µM | TGI (HOP-62 NSCLC): 36.7 µM | TGI (SF-539 CNS): 22.4 µM | TGI (HS 578T breast): 39.6 µM | TGI (NCI-H23 lung): 14.5 µM | TGI (MDA-MB-435): 17.2 µM | TGI (HCC-2998 colon): 24.4 µM | TGI (UACC-62 melanoma): 18.4 µM | TGI (SK-MEL-28 melanoma): 35 µM | TGI (OVCAR-3 ovarian): 26.5 µM | TGI (A549 NSCLC): 23.5 µM | TGI (MALME-3M melanoma): 10.2 µM | TGI (U251 CNS): 17.8 µM | TGI (HCT-15 colon): 19.2 µM | TGI (NCI-H522 lung): 25.7 µM | TGI (T-47D breast): 21.5 µM | TGI (NCI-H460 lung): 15.9 µM | TGI (OVCAR-5 ovarian): 32.2 µM | TGI (LOX IMVI melanoma): 15.8 µM | TGI (TK-10 renal): 38.7 µM | TGI (SNB-19 CNS): 25.1 µM | TGI (MDA-MB-231 breast): 17.3 µM | TGI (SR leukemia): 54.9 µM | TGI (NCI/ADR-RES ovarian): 25.3 µM | TGI (RPMI-8226 leukemia): 56.7 µM | TGI (IGROV1 ovarian): 19.2 µM | TGI (SF-268 CNS): 22.6 µM | TGI (MDA-N): 17.9 µM | TGI (OVCAR-8 ovarian): 29.5 µM | TGI (BT-549 breast): 27.5 µM | TGI (COLO 205 colon): 22.7 µM | TGI (UO-31 renal): 20.6 µM | TGI (786-0 renal): 18.9 µM | TGI (SK-MEL-2 melanoma): 30.2 µM | TGI (K-562 leukemia): 12.1 µM | TGI (SN12C renal): 22.3 µM | TGI (HCT-116 colon): 12.3 µM | TGI (MOLT-4 leukemia): 12.3 µM | TGI (MCF7 breast): 19.4 µM | TGI (M14 melanoma): 26.2 µM | TGI (CAKI-1 renal): 57 µM | TGI (HT29 colon): 31 µM | TGI (CCRF-CEM leukemia): 13.6 µM

CC1OC(OC2C(O[C@@H]3C[C@@H]4CC[C@@H]5[C@H](CC[C@]6(C)C7C(C[C@@H]56)O[C@]5(CC[C@@H](C)CO5)[C@H]7C)[C@@]4(C)C[C@H]3O)OC(CO)C(O)C2O)C(O)C(O)C1O (some centres undefined)
TGI (DU-145 prostate): 3.13 µM | TGI (UACC-257 melanoma): 3.35 µM | TGI (OVCAR-4 ovarian): 3.28 µM | TGI (SK-MEL-5 melanoma): 4.22 µM | TGI (A498 renal): 5.29 µM | TGI (HL-60(TB) leukemia): 4.48 µM | TGI (SF-539 CNS): 3.02 µM | TGI (HS 578T breast): 5.26 µM | TGI (NCI-H23 lung): 3.14 µM | TGI (MDA-MB-435): 2.86 µM | TGI (HCC-2998 colon): 3.21 µM | TGI (UACC-62 melanoma): 3.16 µM | TGI (RXF 393 renal): 3.65 µM | TGI (SK-MEL-28 melanoma): 3.43 µM | TGI (HOP-92 NSCLC): 6.25 µM | TGI (OVCAR-3 ovarian): 3.02 µM | TGI (MALME-3M melanoma): 3.15 µM | TGI (HCT-15 colon): 3.27 µM | TGI (SF-295 CNS): 3.2 µM | TGI (T-47D breast): 3.7 µM | TGI (OVCAR-5 ovarian): 2.85 µM | TGI (LOX IMVI melanoma): 3.29 µM | TGI (TK-10 renal): 3.06 µM | TGI (SNB-19 CNS): 33 µM | TGI (MDA-MB-231 breast): 3.19 µM | TGI (NCI-H226 lung): 6.08 µM | TGI (SR leukemia): 5.24 µM | TGI (RPMI-8226 leukemia): 4.9 µM | TGI (SF-268 CNS): 3.5 µM | TGI (MDA-N): 13.6 µM | TGI (BT-549 breast): 4.15 µM | TGI (COLO 205 colon): 3.41 µM | TGI (K-562 leukemia): 5.94 µM | TGI (CAKI-1 renal): 3.22 µM | TGI (CCRF-CEM leukemia): 3.52 µM

CC[N+]1(C)CCC(O)(/C=C/c2ccc(Cl)cc2)C(C(=O)/C=C/c2ccc(Cl)cc2)C1 (centres undefined)
TGI (PC-3 prostate): 27.7 µM | TGI (ACHN renal): 13.6 µM | TGI (DU-145 prostate): 27.6 µM | TGI (SNB-75 CNS): 26.7 µM | TGI (UACC-257 melanoma): > 52 µM | TGI (OVCAR-4 ovarian): > 67.2 µM | TGI (SK-OV-3 ovarian): 36.8 µM | TGI (KM12 colon): 10.3 µM | TGI (SK-MEL-5 melanoma): > 45.8 µM | TGI (HOP-62 NSCLC): 39.3 µM | TGI (A498 renal): 30.2 µM | TGI (HL-60(TB) leukemia): 4.87 µM | TGI (SF-539 CNS): > 20.5 µM | TGI (HS 578T breast): > 30.1 µM | TGI (NCI-H23 lung): 30.3 µM | TGI (MDA-MB-435): 22.4 µM | TGI (HCC-2998 colon): 45.1 µM | TGI (UACC-62 melanoma): 37.4 µM | TGI (RXF 393 renal): 25.4 µM | TGI (SK-MEL-28 melanoma): 23.2 µM | TGI (HOP-92 NSCLC): 9.11 µM | TGI (OVCAR-3 ovarian): > 61 µM | TGI (A549 NSCLC): 43 µM | TGI (EKVX NSCLC): > 57.3 µM | TGI (MALME-3M melanoma): 24.3 µM | TGI (U251 CNS): 20.8 µM | TGI (HCT-15 colon): > 51.6 µM | TGI (SF-295 CNS): 37 µM | TGI (T-47D breast): 77.4 µM | TGI (NCI-H460 lung): > 28.2 µM | TGI (OVCAR-5 ovarian): > 53.7 µM | TGI (LOX IMVI melanoma): > 21.6 µM | TGI (TK-10 renal): 13 µM | TGI (SNB-19 CNS): 17.4 µM | TGI (MDA-MB-231 breast): > 31.5 µM | TGI (NCI/ADR-RES ovarian): 39.7 µM | TGI (IGROV1 ovarian): > 22.4 µM | TGI (SF-268 CNS): > 60.6 µM | TGI (MDA-N): > 34.4 µM | TGI (OVCAR-8 ovarian): 51 µM | TGI (BT-549 breast): 39.3 µM | TGI (COLO 205 colon): > 26.5 µM | TGI (UO-31 renal): 20.2 µM | TGI (786-0 renal): > 26.5 µM | TGI (SK-MEL-2 melanoma): 39 µM | TGI (K-562 leukemia): 5.71 µM | TGI (SN12C renal): 27.1 µM | TGI (HCT-116 colon): 29.1 µM | TGI (MOLT-4 leukemia): 6.52 µM | TGI (MCF7 breast): > 36.6 µM | TGI (M14 melanoma): > 38 µM | TGI (CAKI-1 renal): 3.71 µM | TGI (HT29 colon): 14.1 µM | TGI (CCRF-CEM leukemia): 3.85 µM
